The values below come from patent US12161612B2, “Methods and compositions for reducing symptoms of Parkinson's disease” (NeuroDerm, Ltd., priority 2023, dated 2024).

Data set [1] can be described thus: ND0612-001 dose proportionality, 24 hour continuous subcutaneous infusion. It is filed as in vivo, human. The settings on record: healthy male subjects; LD (6% w/w)/CD (1.4% w/w) composition, 24 hour subcutaneous infusion at 80-240 μl/h. How it is done:
Subjects were administered with a composition comprising LD (6% w/w)/CD (1.4% w/w) by way of a 24 hour continuous infusion at varying infusion rates: • Group 1:80 μl/h • Group 2:120 μl/h • Group 3:160 μl/h • Group 4:200 μl/h • Group 5:240 μl/h
Several PK parameters were derived for both LD and CD in the dose proportionality assessment, including AUC (hr*ng/ml), Cmax (ng/ml), C15 (ng/ml), and C24 (ng/mL).

Data set [2] in a line: ND0612-005a/ND0612-005b plasma carbidopa levels after subcutaneous carbidopa doses. The class given is in vivo, human. Conditions: 60 mg/ml levodopa with 7.5, 6 or 4 mg/ml carbidopa over 24 hours, 17.9, 26.9, 33.6 mg/24 h carbidopa. The method, then: In a separate clinical trial (ND0612-005a and ND0612-005b, open label design studies), the plasma carbidopa levels were tested in view of the subcutaneous administration of several carbidopa doses. Three formulations, comprising 60 mg/ml levodopa and (a) 7.5 mg/ml; (b) 6 mg/ml; or 4 mg/ml of carbidopa, were administered to three groups of subjects over the course of 24 hours, providing a total of 17.9 mg/24 h carbidopa to each subject in the first group, 26.9 mg/24 h carbidopa to each subject in the second group and 33.6 mg/24 h carbidopa to each subject in the third group.

`C[C@@](Cc1ccc(O)c(O)c1)(NN)C(=O)O` [CD, carbidopa]: the “dose proportionality of PK parameters (AUC, Cmax, C15, C24)” value in data set [1] is listed as “demonstrated dose proportionality”. In data set [2], the “carbidopa Cmax dose proportionality” value was “showed clear dose proportionality”.

Turning to `N[C@@H](Cc1ccc(O)c(O)c1)C(=O)O` [LD, L-3,4-dihydroxyphenylalanine], the “dose proportionality of PK parameters (AUC, Cmax, C15, C24)” value in data set [1] is reported as “demonstrated dose proportionality”.
